Data taken from US7087626B2, “Pyrrole derivatives as pharmaceutical agents” (Eli Lilly and Company, priority 2001, dated 2006).

target: T1, TGF-β Type II (RII WT) receptor (Homo sapiens, UniProt P37173); test: TGF-β Receptor II (RII WT) in vitro kinase reaction; assay type: biochemical; settings: 6×-HIS cytoplasmic kinase domain, 4 uM ATP, 30° C., 40 min
T1 construct: The 6×-HIS tagged cytoplasmic kinase domain of each receptor was expressed and purified from Sf9 insect cell lysates; 6xHis; made in house; host or cells: Sf9 insect cells
T1 sequence (P37173 244-544 limits assumed): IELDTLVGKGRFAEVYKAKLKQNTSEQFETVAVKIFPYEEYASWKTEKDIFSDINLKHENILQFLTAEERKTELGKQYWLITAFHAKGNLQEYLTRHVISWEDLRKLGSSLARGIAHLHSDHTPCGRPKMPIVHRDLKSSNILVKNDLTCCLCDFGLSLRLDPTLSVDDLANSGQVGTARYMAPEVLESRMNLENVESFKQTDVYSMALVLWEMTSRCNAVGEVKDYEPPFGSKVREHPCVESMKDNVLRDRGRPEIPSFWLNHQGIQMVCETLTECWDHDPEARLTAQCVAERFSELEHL
Protocol: (§1) TGF-β Receptor I and II Purification and in vitro Kinase Reactions
(§2) For TGF-β Type I (RIT204D) and Type II (RII WT) Receptors: The 6×-HIS tagged cytoplasmic kinase domain of each receptor was expressed and purified from Sf9 insect cell lysates as briefly described below:
(§3) Cell pellets after 48-72 hrs of infection were lysed in lysis buffer (LB: 50 mM Tris pH 7.5, 150 mM NaCl, 50 mM NaF, 0.5% NP40 with freshly added 20 mM, β-mercaptoethanol, 10 mM imidazole, 1 mM PMSF, 1×EDTA-free Complete Protease Inhibitor (Boehringer Mannheim).
Cell lysates were clarified: by centrifugation and […] filtered prior to purification by Ni/NTA affinity chromatography (Qiagen).
Equilibrate with 10 CV of LB, load sample, wash with 10 CV RIPA buffer (50 mM Tris pH 7.5, 150 mM NaCl, 1% NP40, 1 mM EDTA, 0.25% sodium deoxycholate, added fresh 20 mM β-mercaptoethanol, 1 mM PMSF), wash with 10 CV LB, wash with 10 CV 1×KB (50 mM Tris pH 7.5, 150 mM NaCl, 4 mM MgCl2, 1 mM NaF, 2 mM β-mercaptoethanol), elute with a linear gradient of 1×KB containing 200 mM Imidazole.
Both enzymes were approximately 90% pure and had autophosphorylation activity.
(§4) Reactions: 170-200 nM enzyme in 1×KB, compound dilution series in 1×KB/16% DMSO (20 uM to 1 nM final concentration with 4% DMSO final concentration), reactions started by adding ATP mix (4 uM ATP/1 uCi ^33P-[…]-ATP final concentrations) in 1×KB.
(§5) Reactions were incubated at 30° C. for 1 hr RIT204D or 40 min for RII WT. Reactions were stopped and quantitated using standard TCA/BSA precipitation onto Millipore FB glass fiber filter plates and by liquid scintillation counting on a MicroBeta JET.

| Compound | IC50 [µM] |
| --- | --- |
| FC(F)(F)c1cccc(-c2nn3c(c2-c2ccnc4ccccc24)CCC3)c1 [4-[2-(3-Trifluoromethylphenyl)-5,6-dihydro-4H-pyrrolo[1,2-b]pyrazol-3-yl]-quinoline] | < 20 |
| Nc1ccc2c(-c3c(-c4ccccn4)nn4c3CCC4)ccnc2c1 [4-(2-Pyridin-2-yl-5,6-dihydro-4H-pyrrolo[1,2-b]pyrazol-3-yl)-quinolin-7-ylamine] | < 20 |
| CCC(C)CNC(=O)c1ccc2c(-c3c(-c4ccccn4)nn4c3CCC4)ccnc2c1 (stereo not drawn) [4-(2-Pyridin-2-yl-5,6-dihydro-4H-pyrrolo[1,2-b]pyrazol-3-yl)-quinoline-7-carboxylic acid(2-methyl-butyl)-amide] | < 20 |
| OC1CCCc2c(-c3ccnc4ccccc34)c(-c3ccccn3)nn21 (stereo not drawn) [2-Pyridin-2-yl-3-quinolin-4-yl-pyrazolo[1,5-a]piperidin-7-ol] | < 20 |
| O=C(NC1CC1)c1ccc2c(-c3c(-c4ccccn4)nn4c3CCC4)ccnc2c1 [4-(2-Pyridin-2-yl-5,6-dihydro-4H-pyrrolo[1,2-b]pyrazol-3-yl)-quinoline-7-carboxylic acid cyclopropylamide] | < 20 |
| CN(C)CCCOc1ccc2c(-c3c(-c4ccccn4)nn4c3CCC4)ccnc2c1 [Dimethyl-{3-[4-(2-pyridin-2-yl-5,6-dihydro-4H-pyrrolo[1,2-b]pyrazol-3-yl)-quinolin-7-yloxy]-propyl}-amine] | < 20 |
| CC(C)c1cc(-c2c(-c3ccccn3)nn3c2CCC3)c2ccc(Br)cc2n1 [7-Bromo-2-isopropyl-4-(2-pyridin-2-yl-5,6-dihydro-4H-pyrrolo[1,2-b]pyrazol-3-yl)-quinoline] | < 20 |
| Cc1cccc(-c2nn3c(c2-c2ccnc4cc(Br)ccc24)CCC3CO)n1 (stereo not drawn) [[3-(7-Bromo-quinolin-4-yl)-2-(6-methyl-pyridin-2-yl)-5,6-dihydro-4H-pyrrolo[1,2-b]pyrazol-6-yl]3-methanol] | < 20 |
| COc1cccc(C2Cc3c(-c4ccnc5ccccc45)c(-c4ccccn4)nn3C2)c1 (stereo not drawn) [4-[5-(3-Methoxy-phenyl)-2-pyridin-2-yl-5,6-dihydro-4H-pyrrolo[1,2-b]pyrazol-3-yl]-quinoline] | < 20 |

Second part, the compound after the results:

| IC50 [µM] | Compound |
| --- | --- |
| < 20 | ClCCCOc1ccc2c(-c3c(-c4ccccn4)nn4c3CCC4)ccnc2c1 [7-(3-Chloro-propoxy)-4-(2-pyridin-2-yl-5,6-dihydro-4H-pyrrolo[1,2-b]pyrazol-3-yl)-quinoline] |
| < 20 | CN(C)CCOc1ccc2c(-c3c(-c4ccccn4)nn4c3CCC4)ccnc2c1 [Dimethyl-{2-[4-(2-pyridin-2-yl-5,6-dihydro-4H-pyrrolo[1,2-b]pyrazol-3-yl)-quinolin-7-yloxy]-ethyl}-amine] |
| < 20 | Cc1cccc(-c2nn3c(c2-c2ccnc4ccc(-c5ccccc5)cc24)CCC3)n1 [4-[2-(6-Methyl-pyridin-2-yl)-5,6-dihydro-4H-pyrrolo[1,2-b]pyrazol-3-yl]-6-phenyl-quinoline] |
| < 20 | CN(C)CCNC(=O)COc1ccc2c(-c3c(-c4ccccn4)nn4c3CCC4)ccnc2c1 [N-(2-dimethylamino-ethyl)-2-[4-(2-pyridin-2-yl-5,6-dihydro-4H-pyrrolo[1,2-b]pyrazol-3-yl)-quinolin-7-yloxy]-acetamide] |
| < 20 | O=C(Nc1ccccn1)c1ccc2c(-c3c(-c4ccccn4)nn4c3CCC4)ccnc2c1 [4-(2-Pyridin-2-yl-5,6-dihydro-4H-pyrrolo[1,2-b]pyrazol-3-yl)-quinoline-7-carboxylic acid pyridin-2-ylamide] |
| < 20 | Cc1cccc(-c2nn3c(c2-c2ccnc4cc(C=CC(=O)O)ccc24)CCC3)n1 [3-{4-[2-(6-Methyl-pyridin-2-yl)-5,6-dihydro-4H-pyrrolo[1,2-b]pyrazol-3-yl]-quinolin-7-yl}-acrylic acid] |
| < 20 | CCN(C)CCCOc1ccc2c(-c3c(-c4ccccn4)nn4c3CCC4)ccnc2c1 [Ethyl-methyl-{3-[4-(2-pyridin-2-yl-5,6-dihydro-4H-pyrrolo[1,2-b]pyrazol-3-yl)-quinolin-7-yloxy]-propyl}-amine] |
| < 20 | O=C1OCCN1c1ccc2c(-c3c(-c4ccccn4)nn4c3CCC4)ccnc2c1 [3-[4-(2-Pyridin-2-yl-5,6-dihydro-4H-pyrrolo[1,2-b]pyrazol-3-yl)-quinolin-7-yl]-oxazolidin-2-one] |

target: T2, TGF-β Type I (RIT204D) receptor (Homo sapiens, UniProt P36897, T204D); test: TGF-β Receptor I (RIT204D) in vitro kinase reaction; assay type: biochemical; settings: 6×-HIS cytoplasmic kinase domain, 4 uM ATP, 30° C., 1 hr
T2 construct: The 6×-HIS tagged cytoplasmic kinase domain of each receptor was expressed and purified from Sf9 insect cell lysates; 6xHis; made in house; host or cells: Sf9 insect cells
T2 sequence (P36897 148-503 T204D limits assumed): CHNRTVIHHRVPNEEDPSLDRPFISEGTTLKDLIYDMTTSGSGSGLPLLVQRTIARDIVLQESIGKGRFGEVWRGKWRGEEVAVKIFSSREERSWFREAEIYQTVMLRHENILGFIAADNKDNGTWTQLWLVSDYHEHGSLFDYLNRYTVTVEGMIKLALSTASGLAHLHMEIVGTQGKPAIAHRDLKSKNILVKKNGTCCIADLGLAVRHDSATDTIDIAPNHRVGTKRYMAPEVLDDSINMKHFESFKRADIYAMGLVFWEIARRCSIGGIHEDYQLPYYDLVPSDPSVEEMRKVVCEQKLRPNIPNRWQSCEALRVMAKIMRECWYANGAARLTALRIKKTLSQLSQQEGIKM
Protocol: as §1, §2, §3, §4, §5

| Compound | IC50 [µM] |
| --- | --- |
| COc1ccc(-c2c(-c3cccc(C)n3)nn3c2CCC3)cc1 [3-(4-Methoxyphenyl)-2-(6-methylpyridin-2-yl)-5,6-dihydro-4H-pyrrolo[1,2-b]pyrazole] | < 20 |
| Cc1cccc(-c2nn3c(c2-c2cccnc2)CCC3)n1 [2-(6-methyl-pyridin-2-yl)-3-pyridin-3-yl-5,6-dihydro-4H-pyrrolo[1,2-b]pyrazole] | < 20 |
| c1ccc(Cc2cccc(-c3nn4c(c3-c3ccnc5ccccc35)CCC4)n2)cc1 [4-[2-(6-Benzyl-pyridin-2-yl)-5,6-dihydro-4H-pyrrolo[1,2-b]pyrazol-3-yl]-quinoline] | < 20 |
| Clc1cccc(-c2nn3c(c2-c2ccnc4ccccc24)CCCC3)c1 [4-[2-(3-Chloro-phemyl)-4,5,6,7-tetrahydro-pyrazolo[1,5-alpyridin-3-y]-quinoline] | < 20 |
| CN(C)CCCOc1ccc2c(-c3c(-c4ccccn4)nn4c3CCC4)ccnc2c1 [Dimethyl-{3-[4-(2-pyridin-2-yl-5,6-dihydro-4H-pyrrolo[1,2-b]pyrazol-3-yl)-quinolin-7-yloxy]-propyl}-amine] | < 20 |
| CN(C)CCCCOc1cc(-c2c(-c3ccccn3)nn3c2CCC3)ccn1 [Dimethyl-{4-[4-(2-pyridin-2-yl-5,6-dihydro-4H-pyrrolo[1,2-b]pyrazol-3-yl)-pyridin-2-yloxy]-butyl}-amine] | < 20 |
| CC(=O)NCCCOc1ccc2c(-c3c(-c4ccccn4)nn4c3CCC4)ccnc2c1 [N-{3-[4-(2-Pyridin-2-yl-5,6-dihydro-4H-pyrrolo[1,2-b]pyrazol-3-yl)-quinolin-7-yloxy]-propyl}-acetamide] | < 20 |
| FC(F)(F)Oc1cccc(-c2nn3c(c2-c2ccnc4ccccc24)CCC3)c1 [4-[2-(3-Trifluoromethoxy-phenyl)-5,6-dihydro-4H-pyrrolo[1,2-b]pyrazol-3-yl]-quinoline] | < 20 |

Now from value to compound:

| IC50 [µM] | Compound |
| --- | --- |
| < 20 | COC(=O)/C=C/c1ccc2c(-c3c(-c4cccc(C)n4)nn4c3CCC4)ccnc2c1 [3-{4-[2-(6-Methyl-pyridin-2-yl)-5,6-dihydro-4H-pyrrolo[1,2-b]pyrazol-3-yl]-quinolin-7-yl}-acrylic acid methyl ester] |
| < 20 | c1csc(-c2nn3c(c2-c2ccnc4ccccc24)CCC3)c1 [4-(2-Thiophen-2-yl-5,6-dihydro-4H-pyrrolo[1,2-b]pyrazol-3-yl)quinoline] |
| < 20 | CS(=O)(=O)c1ccc2c(-c3c(-c4ccccn4)nn4c3CCC4)ccnc2c1 [7-Methanesulfonyl-4-(2-pyridin-2-yl-5,6-dihydro-4H-pyrrolo[1,2-b]pyrazol-3-yl)-quinoline] |
| < 20 | CN(C)CCCNc1cc(-c2c(-c3ccccn3)nn3c2CCC3)ccn1 [N,N-Dimethyl-N′-[4-(2-pyridin-2-yl-5,6-dihydro-4H-pyrrolo[1,2-b]pyrazol-3-yl)-pyridin-2-yl]-propane-1,3-diamine] |
| < 20 | CN(C)CCCN(C)C(=O)c1ccc2c(-c3c(-c4ccccn4)nn4c3CCC4)ccnc2c1 [4-(2-Pyridin-2-yl-5,6-dihydro-4H-pyrrolo[1,2-H]pyrazol-3-yl)-quinoline-7-carboxylic acid(3-dimethylamino-propyl)-methyl-amide] |
| < 20 | Cc1cccc(-c2nn3c(c2-c2ccc(F)cc2)CCC3)n1 [3-(4-Fluorophenyl)-2-(6-methylpyridin-2-yl)-5,6-dihydro-4H-pyrrolo[1,2-b]pyrazole] |
| < 20 | CN(C)CCNC(=O)COc1ccc2c(-c3c(-c4ccccn4)nn4c3CCC4)ccnc2c1 [N-(2-dimethylamino-ethyl)-2-[4-(2-pyridin-2-yl-5,6-dihydro-4H-pyrrolo[1,2-b]pyrazol-3-yl)-quinolin-7-yloxy]-acetamide] |
| < 20 | CCCNC(=O)c1ccc2c(-c3c(-c4ccccn4)nn4c3CCC4)ccnc2c1 [4-(2-Pyridin-2-yl-5,6-dihydro-4H-pyrrolo[1,2-b]pyrazol-3-yl)-quinoline-7-carboxylic acid propylamide] |
